In patent publication US3965111A, “Triazolothienodiazepine compounds” (Yoshitomi Pharmaceutical Industries, Ltd., priority 1971, dated 1976) one finds ED50 data, which are given here for 3 compounds.

Common to all, as to type: in vivo
Assay [1] deals with fighting episodes in mice. As to the kind of experiment: Suppression of fighting behavior (electric foot-shock induced fighting). Conditions: Mus musculus; female mice, oral, 60 min before foot-shock for 3 min; dose to suppress 50% of fighting pairs. As to the method:
I. suppression of Fighting Behavior
Fighting episodes were produced in mice by the method described by Tedeschi et al in Journal of Pharmacology and Experimental Therapeutics, Vol. 125, pp. 28 ff. (1959). Groups of 8 female mice (4 pairs) were given orally, the test compound 60 minutes prior to receiving electric foot-shock for 3 minutes with 530 volts of interrupted direct current, 1.3 milliamperes, 10 Hz. […] The control mice of 81 pairs had shown the fighting episodes of 8.7 times on the average under the same conditions. The ED50, a dose required to suppress 50% of fighting pairs was determined graphically.

Assay [2] in a line: Anti-pentylenetetrazole effect (prevention of death). Conditions: Mus musculus, ip; mice, intraperitoneal, 15 min before pentylenetetrazole 150 mg/kg s.c.; dead mice counted at 3 hours; read-out: Antipentylenetetrazole Effect ED50. As to the method:
Ii. anti-pentylenetetrazole Effect
Pentylenetetrazole (150 mg/kg) was administered subcutaneously to groups, each of 6 mice, 15 minutes after intraperitoneal administration of the test compound. The number of dead mice were counted 3 hours after the administration of pentylenetetrazole, and then the ED50, a dose required to reduce the number of dead mice to 50%, was determined graphically.

The nature of assay [3]: Anti-megimide effect (prevention of tonic extensor convulsion). Conditions: Mus musculus, ip; mice, intraperitoneal, 60 min before megimide 80 mg/kg s.c.; tonic extensor convulsion prevented for 3 hours in 50%; read-out: Antimegimide Effect ED50. As to the method: Iii. anti-megimide Effect
Megimide (80 mg/kg) was administered subcutaneously to groups, each of 6 mice, 60 minutes after intra-peritoneal administration of the test compound. The ED50, a dose required to prevent for 3 hours, the tonic extensor convulsion induced by the administration of megimide in 50% of the animals, was determined graphically.

The term ED50 denotes the dose at which the effect has come halfway, by size or by number of responders. In the case of `Cc1cc2c(s1)-n1c(nn(C)c1=O)CN=C2c1ccccc1Cl` [A, 2,8-Dimethyl-6-o-chlorophenyl-1,2-dihydro-4H-s-triazolo [3,4-c]-thieno[2,3-e][1,4]diazepin-1-one], the ED50 in assay [1] stood at 4.8 mg/kg; in assay [2], 0.9 mg/kg; in assay [3], 1.3 mg/kg.

Take `CCc1cc2c(s1)-n1c(nn(C)c1=O)CN=C2c1ccccc1Cl` [B, 2-Methyl-6-o-chlorophenyl-8-ethyl-1,2-dihydro-4H-s-triazolo[3,4-c]-thieno[2,3-e][1,4]diazepin-1-one]: the figures for the ED50 in assay [1], in assay [2] and in assay [3] were 0.8 mg/kg, 1.4 mg/kg and 5.7 mg/kg, respectively.

Regarding `CCc1cc2c(s1)-n1c(n[nH]c1=O)CN=C2c1ccccc1Br` [C, 6-o-Bromophenyl-8-ethyl-1,2-dihydro-4H-s-triazolo[3,4-c]-thieno[2,3-e]-[1,4]diazepin-1-one], the 50% effective dose (ED50) in assay [1] came out at 2.7 mg/kg; in assay [2], 2.6 mg/kg; in assay [3] it was 7.2 mg/kg.
